Measurements as given in ChEMBL document CHEMBL2074508, “Functional characterization of the human multidrug transporter, ABCG2, expressed in insect cells” (Biochem Biophys Res Commun, 2001).
pEC50, pKi: −log10 of the molar value.

Assays:
[1] = target: T1, Broad substrate specificity ATP-binding cassette transporter ABCG2 (Homo sapiens, UniProt Q9UNQ0); assay: TP_TRANSPORTER: ATP hydrolysis in membrane vesicle from BCRP-expressing Sf9 cells; type: functional, cell membranes; settings: read-out: Kact
T1 sequence (Q9UNQ0 whole entry): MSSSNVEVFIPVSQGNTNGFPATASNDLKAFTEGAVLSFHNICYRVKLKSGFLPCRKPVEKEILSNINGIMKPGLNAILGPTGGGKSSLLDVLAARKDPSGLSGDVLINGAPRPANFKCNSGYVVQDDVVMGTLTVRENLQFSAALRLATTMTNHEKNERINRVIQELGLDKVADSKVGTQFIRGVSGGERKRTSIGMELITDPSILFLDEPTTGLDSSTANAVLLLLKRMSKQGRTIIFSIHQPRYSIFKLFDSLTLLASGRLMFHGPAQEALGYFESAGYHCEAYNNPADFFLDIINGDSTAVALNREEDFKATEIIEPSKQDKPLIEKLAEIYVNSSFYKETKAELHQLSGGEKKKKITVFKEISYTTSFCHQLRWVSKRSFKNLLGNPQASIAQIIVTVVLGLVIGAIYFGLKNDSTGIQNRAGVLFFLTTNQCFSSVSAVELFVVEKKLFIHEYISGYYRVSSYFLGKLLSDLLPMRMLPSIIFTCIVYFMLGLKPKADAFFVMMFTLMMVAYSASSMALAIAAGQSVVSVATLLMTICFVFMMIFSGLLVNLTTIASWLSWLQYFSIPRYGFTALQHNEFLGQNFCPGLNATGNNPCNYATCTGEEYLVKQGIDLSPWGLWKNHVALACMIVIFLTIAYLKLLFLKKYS

[2] = target: T1, Broad substrate specificity ATP-binding cassette transporter ABCG2; assay: TP_TRANSPORTER: inhibition of ATPase in membrane vesicle from BCRP-expressing Sf9 cells; type: functional, cell membranes

SMILES | pEC50 [1] | pKi [2]
COc1cccc2c1C(=O)c1c(O)c3c(c(O)c1C2=O)C[C@@](O)(C(C)=O)C[C@@H]3O[C@H]1C[C@H](N)[C@H](O)[C@H](C)O1 [DAUNORUBICIN] | 5.60 | 
O=C1c2c(O)ccc(O)c2C(=O)c2c(NCCNCCO)ccc(NCCNCCO)c21 [MITOXANTRONE] | 5.15 | 
COc1ccc2c3c([nH]c2c1)[C@H](C=C(C)C)N1C(=O)[C@@H]2CCCN2C(=O)[C@@H]1C3 [FUMITREMORGIN] |  | 5.89

More lines, main results first:

pEC50 [1] | SMILES | pKi [2]
5.30 | COc1cccc2c1C(=O)c1c(O)c3c(c(O)c1C2=O)C[C@@](O)(C(=O)CO)C[C@@H]3O[C@H]1C[C@H](N)[C@H](O)[C@H](C)O1 [DOXORUBICIN] | 
6.00 | COc1cc2nc(N3CCN(C(=O)c4ccco4)CC3)nc(N)c2cc1OC [PRAZOSIN] | 
5.35 | COC(=O)c1ccccc1-c1c2ccc(=N)cc-2oc2cc(N)ccc12 [RHODAMINE123] | 
